Laboratory results from patent US20240108614A1, “Methods of Treating Diabetic Cardiomyopathy by Inhibiting GLUT1” (University of Cincinnati, priority 2022, published 2024).

Assays:
Assay type in all cases: in vivo
type 1 diabetic mice [1] = assay: Type 1 diabetes mouse model, treatment over twelve weeks (prevention), 2D echocardiography
Experimental: To explore whether GLUT1 inhibition holds therapeutic potential against diabetic cardiomyopathy, diabetic mice were treated with a GLUT1 inhibitor (STF-31). Specifically, type 1 diabetes was induced in WT mice and mice were monitored for twelve weeks.
(§1) To evaluate the impact of GLUT1 and myocardial glucose content changes on cardiac function and structure, 2D echocardiography was performed to measure EF, FS, end-diastolic and end-systolic volumes (EDV, ESV), stroke volume (SV), and cardiac output (CO) using M-mode short axis images, automatic tracing, myocardial strain and strain rate with speckle tracking. From the pulsed wave Doppler spectral waveforms, the peak early and late diastolic transmitral velocities (E, A waves) were measured to obtain the E/A ratio.
One group of mice was treated with STF-31 for the entire twelve-weeks period.
Prior to this disclosure, treatment of diabetic patients with SGLT2 inhibitors (dapa or empagliflozin), has shown the most robust cardioprotective effects. Treatment of diabetic mice with dapa corrected hyperglycemia (FIG. 4A) and prevented systolic (FIG. 4B) and diastolic heart failure (FIG. 4C) in both early and late type 1 diabetes.

[2] = system: type 2 diabetic mice (HFD); assay: Type 2 diabetes mouse model (high-fat diet 32 weeks, then 8 weeks of treatment); details: HFD type 2 diabetes mice
Source text: Similar results were shown in mouse models of type 2 diabetes, wherein mice were fed a high-fat diet (HFD) for 32 weeks prior to initiating 8 weeks of treatment with SFT-31.

type 1 diabetic mice [3] = assay: Type 1 diabetes mouse model, treatment started after cardiac dysfunction was confirmed (6 weeks) until the twelfth week
Experimental: as §1
In another mouse cohort, treatment with either STF-31 or dapa started after cardiac dysfunction was confirmed (6 weeks of type 1 diabetes) and continued until the twelfth week. This treatment corrected both systolic (FIG. 4D) and diastolic (FIG. 4E) dysfunction. Importantly, treatment with either STF-31 or dapa prevented upregulation of KLF5. Thus, inhibition of GLUT1 appears as a novel therapeutic target for diabetic cardiomyopathy that prevents activation of the cardiotoxic FOXO1-KLF5 axis.

[4] = treatment from 6 weeks of type 1 diabetes until twelfth week, after confirmed cardiac dysfunction

**Q.** What does the source list for `CC(C)(C)c1ccc(S(=O)(=O)NCc2ccc(C(=O)Nc3cccnc3)cc2)cc1` [STF-31]?
**A.** diastolic dysfunction (mitral valve E/A ratio) (type 1 diabetic mice [1]): did not develop; plasma glucose levels (hyperglycemia) (type 1 diabetic mice [1]): persistent hyperglycemia; systolic dysfunction (type 1 diabetic mice [1]): did not develop; KLF5 upregulation [2]: prevented; diastolic dysfunction [2]: did not develop; hyperglycemia [2]: persistent hyperglycemia; systolic dysfunction [2]: did not develop; diastolic dysfunction (type 1 diabetic mice [3]; [4]): corrected; systolic dysfunction (type 1 diabetic mice [3]; [4]): corrected; upregulation of KLF5 (type 1 diabetic mice [3]; type 1 diabetic mice): prevented
